What was measured:
[1] = test system: Botrytis cinerea; test: Vine grey mold (grape berries); type: in vivo; details: average of six berries, 7-10 days; for pest or weed control at 50 ppm: grape berries treated with 50 ppm, read-out: % DISEASE CONTROL 50 ppm; for pest or weed control at 200 ppm: grape berries treated with 200 ppm, read-out: % DISEASE CONTROL 200 ppm
Procedure: Grape berries, which have been washed and surfaced sterilized in 70% ethanol for one minute, are, except for the negative controls, treated with 0.2 mL of a 2:3 acetone/water formulation (containing 0.05% Tween® 20) of 200 or 50 ppm of the test compounds and placed one per well in 12-well plates. Six berries per treatment level are used. Twenty-four hours later each berry is inoculated with Botrytis cinerea conidia, 0.2 mL of 10^6 spores/mL suspension. The plates are incubated at 20° C. with a 12 hours photoperiod for 7-10 days and the percent surface area infected with the disease is determined for each replicate using the values of 0, 1, 2, 5, 7, 10, 15, 20, 25, 30, 35, 40, 45, 50, 55, 60, 65, 70, 75, 80, 85, 90, 95, and 100%. Treatment means are calculated and percent disease control is determined by the formula [(control mean - treatment mean)/control means]×100.
Some of the compounds have been tested more than once and the results shown are the average of the number of tests reported.

[2] = test system: Botrytis cinerea; test: Eggplant grey mold; type: in vivo; design: scale not given here; details: inoculated 24 h later, rated after 3-4 days; for Disease Control Rating at 20 ppm: eggplant sprayed with 20 ppm; for Disease Control Rating at 100 ppm: eggplant sprayed with 100 ppm; for Disease Control Rating at 500 ppm: eggplant sprayed with 500 ppm
Procedure: Eggplant seed are planted in 2.25" square pots, six per pot, and maintained in growth chambers set at 23° C., 80% humidity, and 12 h photoperiod. When the plants are at the cotyledon stage (14-18 days afterplanting), the plants are sprayed with 1.5 mL/pot of 500, 100 or 20 ppm 2:3 acetone:water (with 0.5% Tween® 20) formulations of the test compounds.
Twenty-four hours later the plants are inoculated with Botrytis cinerea, approximately 0.5 mL/pot of a 4×10^6 spore/mL suspension. The plantes are incubated at 23° C. and 100% humidity for 3-4 days, at which time disease control ratings are made based on presence and severity of Botrytis lesions.

[3] = target: T1, succinate dehydrogenase (Botrytis cinerea, UniProt A0A384J5E4+A0A384J8V8+A0A384JHJ5); test: Enzyme inhibition: succinate dehydrogenase activity in Botrytis cinerea mitochondria (DCPIP reduction); type: biochemical; details: concentration required to inhibit the rate of DCPIP reduction by 50%; Botrytis cinerea isolate Nick mitochondria; read-out: I50 (μM conc.)
T1 construct: succinate-DCPIP reductase assay with KCN
Procedure: Mitochondria were isolated by a method adapted from G.A. White [Biochem. Biophys. Res. Commun. 44: 1212, 1971]. Twenty to thirty grams of Botrytis cinerea isolate Nick were resuspended in 250 mL 0.25M sucrose, 5mM Na4 EDTA, pH 7.0 (+) 0.15% (w/v) bovine serum albumin (BSA) and placed in a Bead Beater chamber (Biospec Products, Bartlesville, Ok.). Zirconium oxide beads (0.5mm) were added to finish filling the chamber. Four 30 second beats separated by 2 minute temperature equilibration periods in the cold were used to break the mycelia. A crude mitochondrial preparation was harvested from the homogenate by differential centrifugation at 4° C. and resuspended in BSA-free sucrose/EDTA media and used for SDH assays.
The succinate dehydrogenase activity was measured at 600 nm in 50 mM potassium phosphate, pH 7.2, 1 mM KCN, 45 μM 2,6-dichlorophenolindophenol (DCPIP) and 17 mM disodium succinate (final volume, 1 mL) with a Perkin-Elmer Lambda 7 ultraviolet-visible spectrophotometer. The test compounds were added as acetone solutions (final concentration of acetone, 1% (v/v)). The mitochondrial preparatons were used to initiate the reaction. All rates were corrected for endogenous activities minus succinate. Semilog plots of percentage inhibition versus test compound concentration were used to determine inhibition expressed as I50 (μM) which is the concentration required to inhibit the rate of DCPIP reduction by 50%. The commercial fungicide carboxin was used as standard throughout.

[4] = test system: Rhizoctonia solani; test: Rice sheath blight; type: in vivo; design: scale not given here; details: inoculated two days later, rated after 7 days, average of five plants; for Disease Control Rating at 0.5 mg/mL: foliage and soil sprayed with 0.5 mg/mL; for Disease Control Rating at 0.02 mg/mL: foliage and soil sprayed with 0.02 mg/mL; for Disease Control Rating at 0.1 mg/mL: foliage and soil sprayed with 0.1 mg/mL
Procedure: Rice plants, 11 to 15 days old, are grown in 7.65 cm^2 pots. Each plant in the treatment groups is treated by spraying both the foliage and the soil surface, each with 2 mL of a water/acetone/Tween®20 formulation containing 0.5, 0.1, or 0.02 mg/mL of Compound A. The pots are placed in flood trays which are filled with water to just below the soil line. Two days later, approximately two grams of Rhizoctonia solani inoculum, cultured on rice grain for four to eight weeks, is applied to the base of the rice plants in each pot. After 7 days in a 25° C. high humidity growth chamber, each plant is evaluated for the level of disease contro as compared to untreated controls by the following scale and the average of five plants per treatment level is calculated.

T1 sequence (A0A384J5E4 1-300): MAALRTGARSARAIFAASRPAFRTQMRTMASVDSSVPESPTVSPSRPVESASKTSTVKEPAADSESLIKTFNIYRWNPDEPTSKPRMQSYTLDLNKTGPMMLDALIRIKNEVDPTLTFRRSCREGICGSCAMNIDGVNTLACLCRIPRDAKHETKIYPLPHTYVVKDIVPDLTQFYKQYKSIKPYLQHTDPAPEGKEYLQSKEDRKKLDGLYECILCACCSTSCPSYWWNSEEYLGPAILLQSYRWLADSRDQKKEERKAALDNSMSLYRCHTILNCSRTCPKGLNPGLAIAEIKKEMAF
T1 sequence (A0A384J8V8 1-189): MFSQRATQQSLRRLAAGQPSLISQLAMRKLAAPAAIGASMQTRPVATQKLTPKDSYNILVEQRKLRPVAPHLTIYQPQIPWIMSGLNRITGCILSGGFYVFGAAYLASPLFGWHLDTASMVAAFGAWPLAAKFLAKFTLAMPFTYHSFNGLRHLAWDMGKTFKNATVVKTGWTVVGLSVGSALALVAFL
T1 sequence (A0A384JHJ5 1-192): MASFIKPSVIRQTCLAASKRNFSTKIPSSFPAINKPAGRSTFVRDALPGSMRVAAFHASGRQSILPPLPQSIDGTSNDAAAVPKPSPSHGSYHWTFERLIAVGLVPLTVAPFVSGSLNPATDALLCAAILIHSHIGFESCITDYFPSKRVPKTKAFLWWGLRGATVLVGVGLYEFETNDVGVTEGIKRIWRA
T1 sequence (A0A384K456 1-647 partner): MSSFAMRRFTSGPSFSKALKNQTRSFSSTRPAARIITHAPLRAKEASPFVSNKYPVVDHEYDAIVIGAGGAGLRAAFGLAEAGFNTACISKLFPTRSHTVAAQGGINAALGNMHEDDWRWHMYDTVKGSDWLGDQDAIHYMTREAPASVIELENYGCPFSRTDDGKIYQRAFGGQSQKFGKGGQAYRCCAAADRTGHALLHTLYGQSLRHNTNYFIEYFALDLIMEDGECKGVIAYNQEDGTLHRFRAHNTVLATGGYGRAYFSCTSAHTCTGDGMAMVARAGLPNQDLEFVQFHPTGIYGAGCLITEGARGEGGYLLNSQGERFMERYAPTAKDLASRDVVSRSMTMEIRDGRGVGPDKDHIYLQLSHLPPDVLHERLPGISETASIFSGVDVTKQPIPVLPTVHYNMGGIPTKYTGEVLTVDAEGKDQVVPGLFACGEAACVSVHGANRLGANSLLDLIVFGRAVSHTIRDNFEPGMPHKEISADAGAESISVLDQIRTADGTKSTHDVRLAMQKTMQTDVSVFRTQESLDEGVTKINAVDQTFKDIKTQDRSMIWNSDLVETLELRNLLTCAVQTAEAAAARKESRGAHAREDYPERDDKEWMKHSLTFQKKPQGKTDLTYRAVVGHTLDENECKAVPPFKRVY

SMILES	pest or weed control at 50 ppm [1]	pest or weed control at 200 ppm [1]	Disease Control Rating at 20 ppm [2]	Disease Control Rating at 100 ppm [2]	Disease Control Rating at 500 ppm [2]	IC50 [3]	Disease Control Rating at 0.5 mg/mL [4]	Disease Control Rating at 0.02 mg/mL [4]	Disease Control Rating at 0.1 mg/mL [4]
Cn1cc(C(=O)Nc2ccccc2[C@@H]2C[C@H]3CC[C@@H]2C3)c(C(F)F)n1 (relative stereo) [Example 26, 1H-pyrazole-4-carboxamide, N-(2-bicyclo[2.2.1]hept-2-ylphenyl)-3-(difluoromethyl)-1-methyl-, exo-]	97%	100%	1	2	1	0.0017 µM	1	–	–
Cn1cc(C(=O)Nc2ccccc2[C@@H]2C[C@H]3CC[C@@H]2C3)c(C(F)(F)F)n1 (relative stereo) [Example 27, 1H-pyrazole-4-carboxamide, N-(2-bicyclo[2.2.1]hept-2-ylphenyl)-1-methyl-3-(trifluoromethyl)-, exo-]	80%	74%	0	1	2	0.0048 µM	0	–	–
Cn1cc(C(=O)Nc2ccccc2[C@@H]2C[C@H]3CC[C@@H]2C3)c(Cl)n1 (relative stereo) [Example 52, 1H-pyrazole-4-carboxamide, N-(2-bicyclo[2.2.1]hept-2-ylphenyl)-3-chloro-1-methyl-, exo-]	19%	30%	–	–	0	0.049 µM	2	0	2
Cn1cc(C(=O)Nc2ccccc2[C@@H]2C[C@H]3CC[C@@H]2C3)c(I)n1 (relative stereo) [Example 58, 1H-pyrazole-4-carboxamide, N-(2-bicyclo[2.2.1]hept-2-ylphenyl)-3-iodo-1-methyl-, exo-]	51%	78%	0	0	2	0.0086 µM	2	–	–
Cn1cc(C(=O)Nc2ccccc2[C@@H]2C[C@H]3CC[C@@H]2C3)c(Br)n1 (relative stereo) [Example 65, 1H-pyrazole-4-carboxamide, N-(2-bicyclo[2.2.1]hept-2-ylphenyl)-3-bromo-1-methyl-, exo-]	47%	85%	0	1	2	0.011 µM	3	2	3
C[C@H]1CCC[C@H](c2ccccc2NC(=O)c2cn(C)nc2C(F)(F)F)C1 (relative stereo) [Example 70, 1H-pyrazole-4-carboxamide, 1-methyl-N-[2-(3-methylcyclohexyl)-phenyl]-3-(trifluoromethyl)-, trans-]	97%	96%	1	2	3	0.012 µM	0	–	–
Cc1nn(C)cc1C(=O)Nc1ccccc1[C@@H]1C[C@H]2CC[C@@H]1C2 (relative stereo) [Example 71, 1H-pyrazole-4-carboxamide, N-(2-bicyclo[2.2.1]hept-2-ylphenyl)-1,3-dimethyl-, exo-]	25%	57%	–	–	0	0.046 µM	3	1	3
C[C@@H]1CCC[C@@H](C)C1Oc1ccccc1NC(=O)c1cn(C)nc1C(F)(F)F (relative stereo) [Example 75, 1H-pyrazole-4-carboxamide, 1-methyl-N-[2-[(2,6-dimethylcyclohexyl)oxy]phenyl]-3-(trifluoromethyl)-, (1alpha,2alpha,6beta)-]	6%	0%	–	–	0	0.013 µM	0	–	–
C[C@@H]1CCC[C@H](c2ccccc2NC(=O)c2cn(C)nc2C(F)(F)F)C1 (relative stereo) [Example 79, 1H-pyrazole-4-carboxamide, 1-methyl-N-[2-(3-methylcyclohexyl)phenyl]-3-(trifluoromethyl)-, cis-]	69%	97%	0	1	2	0.011 µM	3	3	3
Cn1cc(C(=O)Nc2ccccc2O[C@@H]2C[C@H]3CC[C@@H]2C3)c(C(F)F)n1 (relative stereo) [Example 80, 1H-pyrazole-4-carboxamide, N-[2-(bicyclo[2.2.1]hept-2-yloxy)-phenyl]-3-(difluoromethyl)-1-methyl-, exo-]	0%	0%	–	–	0	0.083 µM	3	2	3
Cn1cc(C(=O)Nc2ccccc2O[C@@H]2C[C@H]3CC[C@@H]2C3)c(C(F)(F)F)n1 (relative stereo) [Example 81]	0%	7%	–	–	0	0.38 µM	3	3	3
Cn1cc(C(=O)Nc2ccccc2O[C@H]2C[C@H]3CC[C@@H]2C3)c(C(F)F)n1 (relative stereo) [Example 82, 1H-pyrazole-4-carboxamide, N-[2-(bicyclo[2.2.1]hept-2-yloxy)-phenyl]-3-(difluoromethyl)-1-methyl-, endo-]	0%	0%	–	–	0	0.065 µM	3	3	3
Cn1cc(C(=O)Nc2cc(Br)cc(Br)c2C2CCCCC2)c(C(F)(F)F)n1 [Example 136, 1H-pyrazole-4-carboxamide, N-(3,5-dibromo-2-cyclohexylphenyl)-1-methyl-3-(trifluoromethyl)-]	7%	0%	0	0	1	–	0	–	–

From patent US5223526A, “Pyrazole carboxanilide fungicides and use” (Monsanto Company, priority 1992, dated 1993)
